According to US5968933A, “DNA-targeted alkylating agents” (Auckland Division Cancer Society of New Zealand Inc., priority 1994, dated 1999):
Entries after “also recorded” stand apart in the source; their conditions may differ.

Legend:
calf thymus DNA [1] = assay: Rate of alkylation of calf thymus DNA by increase in DNA-bound fluorescence; assay type: biochemical; parameters: unit not given here
S. typhimurium TA100 = assay: Bacterial mutagenicity, plate incorporation assay, TA100; details: for reversion colonies, TA100: mean ± SD
S. typhimurium TA102 = assay: Bacterial mutagenicity, plate incorporation assay, TA102; details: mean ± SD
AA8 cells = assay: Growth inhibition in vitro, AA8; assay type: cell-based, Chinese hamster; details: AA8 cells, 18 h exposure, then 72 h growth, methylene blue; read-out: IC50
Experimental: (§1) Representative examples of compounds of the invention were tested for biological activity against tumors. Compounds 1 to 6 and 14 to 21, prepared as described above, were tested for their ability to inhibit growth in vitro of cells of the wild-type murine leukaemia cell line P388, and the cell line AA8 which is derived from Chinese hamster ovary cells. For each compound, the IC50, ie. the concentration of compound which inhibited cell growth in treated cultures to 50% of that of controls, was determined, using means of three determinations. In addition, a hypersensitivity factor was determined by comparing activity of the compounds against AA8 cells to activity against UV4. The latter cell line is deficient in aspects of the excision repair pathway for removing DNA adducts, and is hypersensitive to DNA-alkylating agents, especially interstrand crosslinking agents. Previous work has shown that the ratio of IC50 s determined in the wild-type AA8 and mutant UV4 lines (the hypersensitivity factor HF) is a determinant of the mode of cell killing by alkylating agents (Palmer, B. D. et al, J. Med. Chem., 1990 33 112-121; Wilson, W. R. et al, J. Med. Chem., 1989 32 31-38). Compounds with HFs of ca. 1 are unlikely to kill cells via DNA alkylation events. Compounds which show high HF values are likely to form bulky adducts or cross-links,with the latter being especially likely for compounds showing the highest HF values (>ca. 25) (Wilson et al, op. cit.).
(§2) Cell lines were maintained in exponential growth phase by subculturing in RPMI 1640 (P338) or Alpha MEM (AA8, UV4) containing 10% fetal calf serum, as previously described (Palmer et al, op.cit.; Baguley, B. C. and Wilson, W. R., Eur. J. Cancer Clin. Oncol., 1987 23 607-613). IC50 values were determined using log-phase cultures in 96-well microculture plates, and were calculated as the nominal drug concentration required to reduce the cell density to 50% of control values, using 8 control cultures on each microplate. For P388 cultures, drug was present throughout the growth period (72 h), and final cell densities were determined using a minor modification of the MTT method of Mossman (Mossman, T., J. Immunol. Methods, 1983 65 55-63). For AA8 and UV4 cultures, drug exposure was terminated after 18 h by washing three times with fresh medium. Cultures were then grown for a further 72 h before determining cell density by staining with methylene blue (Finlay, G. J. et al, Anal. Biochem., 1984 139 272-277).

[2] = system: Saccharomyces cerevisiae strain D5
calf thymus DNA [3] = assay: Reversible DNA binding by spectrophotometric Scatchard analysis; details: 20° C., 0.01M HEPES buffer, pH 7.00
S. typhimurium TA98 = assay: Bacterial mutagenicity, plate incorporation assay, TA98; details: mean ± SD
P388 cells = assay: Growth inhibition in vitro, P388 leukaemia; assay type: cell-based, murine; details: P388 cells, 72 h, MTT; read-out: IC50
Experimental: as §1, §2

AA8 and UV4 cells = assay: Hypersensitivity factor (AA8/UV4 IC50 ratio); assay type: cell-based, Chinese hamster; details: ratio of IC50s AA8/UV4
Experimental: as §1, §2

linearized pSV2gpt DNA = assay: DNA crosslinking assay (agarose gel electrophoresis of linearized plasmid); assay type: biochemical; details: 2 h at 30° C., TE-80 buffer pH 8
Experimental: The ability of representative compounds of the invention to bind to and cross-link DNA was examined. This was carried out by agarose gel electrophoresis of plasmid DNA using linearized pSV2gpt DNA (Tindall, K. R. and Stankowski, L. F.; Mutation Research, 1989 220 241-245) and the method reported by Valu et al, 1990, op.cit. Briefly, linearized pSV2gpt DNA (1 μL of a 1 mg/mL solution) was incubated with drug in TE-80 buffer (10 mM Tris.HCl, 1 mM EDTA at pH 8), shielded from ambient light, for 2 h at 30° C., then denatured by the addition of […] of 1% sodium dodecyl sulfate and 10 μL of 50 mM methylmercury hydroxide and incubated for a further 30 min at 20° C. in the dark. Renaturation of drug-treated DNA samples was carried out by incubation with 2.5 μL of 2-mercaptoethanol for 1 h. Samples were prepared for electrophoresis by the addition of 0.1 mg/mL bromophenol blue, 0.5 μg/mL ethidium bromide and 5 μL of 40% sucrose. Electrophoresis was carried out at 120V in 89 mM tris/borate buffer at pH 8 containing 2 mM EDTA and 0.5 μg/mL ethidium bromide. DNA was visualized using 302 nm trans-illumination, and was photographed using Polaroid type 55 film and a Wratten 3A filter.
After drug treatment, DNA is denatured to the single stranded form, which runs as a lower band in the gels (see lanes 1 and 2 in FIG. 1). Cross-linking by the drugs is evidenced by the appearance of increasing amounts of renatured, double stranded DNA, as shown by the upper band in the gels, corresponding to the band for untreated DNA seen in lane 1.

P338 murine leukaemia = assay type: in vivo, mice; details: for in vivo antitumour activity: P388, single-dose protocol; for % Increase in lifespan: single i.p. dose 24 h after tumour inoculation, at optimal dose (mg/kg: 1 30; 2 30; 3 13.3; 4 3.9; 5 5.9; 6 8.9)
[4] = 80 μg/plate, square brackets: toxicity becoming apparent
[5] = 120 μg/plate, square brackets: toxicity becoming apparent

| Structure (SMILES) | Rate constant for alkylation (calf thymus DNA [1]) | reversion colonies, TA100 (S. typhimurium TA100; 4 μg/plate) | reversion colonies, TA100 (S. typhimurium TA100; 10 μg/plate) | reversion colonies, TA100 (S. typhimurium TA100; 20 μg/plate) | reversion colonies, TA100 (S. typhimurium TA100; 40 μg/plate) | reversion colonies, TA100 (S. typhimurium TA100; 80 μg/plate) | reversion colonies, TA102 (S. typhimurium TA102; 4 μg/plate) | reversion colonies, TA102 (S. typhimurium TA102; 10 μg/plate) | reversion colonies, TA102 (S. typhimurium TA102; 20 μg/plate) | IC50 (AA8 cells) [nM] | Site size (Number of nucleotide residues) (calf thymus DNA [3]) [nucleotide residues] | reversion colonies, TA98 (S. typhimurium TA98; 4 μg/plate) | reversion colonies, TA98 (S. typhimurium TA98; 10 μg/plate) | reversion colonies, TA98 (S. typhimurium TA98; 20 μg/plate) | reversion colonies, TA98 (S. typhimurium TA98; 40 μg/plate) | reversion colonies, TA98 (S. typhimurium TA98; [4]) | IC50 (P388 cells) [nM] | Hypersensitivity factor (AA8 and UV4 cells) | Cross-linking (linearized pSV2gpt DNA) | in vivo antitumour activity (P338 murine leukaemia) | other results |
| --- | --- | --- | --- | --- | --- | --- | --- | --- | --- | --- | --- | --- | --- | --- | --- | --- | --- | --- | --- | --- | --- |
| CN1CCN(c2ccc3nc(-c4ccc5nc(-c6ccc(N(CCCl)CCCl)cc6)[nH]c5c4)[nH]c3c2)CC1 [Compound 2, 2-[2-[4-(N,N-bis(2-chloroethyl)amino)phenyl]-5-benzimidazolyl]-5-(1-methyl-4-piperazinyl)benzimidazole] | 1.78 × 10^4 | 173 ± 7 | 175 ± 17 | 167 ± 28 | 210 ± 20 | 192 ± 1 | 408 ± 31 | 371 ± 14 | 280 ± 14 | 1680 | 2.6 | 61 ± 3 | 68 ± 2 | 58 ± 1 | 52 ± 7 | 55 ± 2 | 800 | 24 | No | highest activity | bacterial mutagenicity (S. typhimurium strains): inactive as a bacterial mutagen; petite (mitochondrial) mutagenesis [2]: inactive; Optimal dose (P338 murine leukaemia; single i.p. dose): 30 mg/kg; % Increase in lifespan (P338 murine leukaemia): 106%; average number of animals in a group of six which were long-term survivors (P338 murine leukaemia; single i.p. dose, optimal dose, group of six): 2 animals |
| CN1CCN(c2ccc3nc(-c4ccc5nc(CCCc6ccc(N(CCCl)CCCl)cc6)[nH]c5c4)[nH]c3c2)CC1 [Compound 5, 2-[2-[3-[4-(N,N-bis(2-chloroethyl)amino)phenyl]propyl]-5-benzimidazolyl]-5-(1-methyl-4-piperazinyl)benzimidazole] | 6.52 × 10^4 | 188 ± 15 | 180 ± 5 | 205 ± 14 | 240 ± 7 | 258 ± 21 | 342 ± 32 | 392 ± 31 | 368 ± 32 | 1320 | 3.0 | 63 ± 2 | 62 ± 1 | 71 ± 13 | 62 ± 3 | 63 ± 9 | 20 | 46 | No | inactive in vivo at all doses up to the maximum tolerable dose | mutagenicity in TA100 (S. typhimurium TA100; statistical analysis): could be considered to show a mutagenic effect in TA100; also recorded: mutagenic ability; reversion colonies, TA102 (S. typhimurium TA102; 40 μg/plate, square brackets: toxicity becoming apparent): 327 ± 17; reversion colonies, TA102 (S. typhimurium TA102; [4]): 480 ± 17; reversion colonies, TA102 (S. typhimurium TA102; [5]): 607 ± 28; aberrant colonies in yeast ([2]; yeast strain D5, in words): some aberrant colonies; mitotic crossing-over ([2]; yeast strain D5, in words): weak mitotic crossing-over; reversion colonies, TA98 (S. typhimurium TA98; [5]): 71 ± 1; Optimal dose (P338 murine leukaemia; single i.p. dose): 5.9 mg/kg; % Increase in lifespan (P338 murine leukaemia): not active |
